Calls of active or inactive are those of the source. The calls are words filed in the database; no cut-off is given here.
Assays:
[1] = AUC (0 to infinity) in ICR(CD-1) mouse at 5 mg/kg, iv treated up to 24 hrs by LC-MS/MS analysis; assay type: ADME, organism-based; settings: in vivo
[2] = Toxicity in female C57BL/6 mouse assessed as increase in survival rate at 50 mg/kg, ip administered once daily by Kaplan Mayer survival analysis; assay type: organism-based; settings: in vivo
[3] = MRT (0 to infinity) in ICR(CD-1) mouse at 5 mg/kg, iv treated up to 24 hrs by LC-MS/MS analysis; assay type: ADME, organism-based; settings: in vivo
[4] = target: Keap1/Nrf2 (Homo sapiens) (UniProt Q16236+Q14145); test: Activation of Keap1-Nrf2 signaling pathway in human U-937 cells assessed as upregulation of HMOX1 at 5 uM in presence of K67 by Western blot analysis; assay type: cell-based
Chain of Keap1/Nrf2 (Homo sapiens) (Q14145 whole entry, looked up): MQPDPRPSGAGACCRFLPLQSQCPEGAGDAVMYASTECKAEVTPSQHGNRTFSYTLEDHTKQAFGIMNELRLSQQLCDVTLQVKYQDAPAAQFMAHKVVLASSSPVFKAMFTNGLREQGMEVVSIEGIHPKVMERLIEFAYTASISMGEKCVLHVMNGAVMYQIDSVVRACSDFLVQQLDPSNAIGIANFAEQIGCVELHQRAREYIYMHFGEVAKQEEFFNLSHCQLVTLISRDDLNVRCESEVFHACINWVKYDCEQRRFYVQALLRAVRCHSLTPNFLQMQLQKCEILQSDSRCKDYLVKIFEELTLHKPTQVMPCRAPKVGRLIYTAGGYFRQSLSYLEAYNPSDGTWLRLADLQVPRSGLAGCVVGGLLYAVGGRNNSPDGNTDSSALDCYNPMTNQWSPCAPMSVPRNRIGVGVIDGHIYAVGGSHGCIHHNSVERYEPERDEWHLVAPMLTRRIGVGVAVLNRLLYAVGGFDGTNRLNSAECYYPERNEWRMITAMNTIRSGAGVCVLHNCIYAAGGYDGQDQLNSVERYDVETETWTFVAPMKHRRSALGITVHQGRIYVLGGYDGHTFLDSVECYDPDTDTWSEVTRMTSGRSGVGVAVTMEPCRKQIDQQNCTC
Chain of Keap1/Nrf2 (Homo sapiens) (Q16236 whole entry, looked up): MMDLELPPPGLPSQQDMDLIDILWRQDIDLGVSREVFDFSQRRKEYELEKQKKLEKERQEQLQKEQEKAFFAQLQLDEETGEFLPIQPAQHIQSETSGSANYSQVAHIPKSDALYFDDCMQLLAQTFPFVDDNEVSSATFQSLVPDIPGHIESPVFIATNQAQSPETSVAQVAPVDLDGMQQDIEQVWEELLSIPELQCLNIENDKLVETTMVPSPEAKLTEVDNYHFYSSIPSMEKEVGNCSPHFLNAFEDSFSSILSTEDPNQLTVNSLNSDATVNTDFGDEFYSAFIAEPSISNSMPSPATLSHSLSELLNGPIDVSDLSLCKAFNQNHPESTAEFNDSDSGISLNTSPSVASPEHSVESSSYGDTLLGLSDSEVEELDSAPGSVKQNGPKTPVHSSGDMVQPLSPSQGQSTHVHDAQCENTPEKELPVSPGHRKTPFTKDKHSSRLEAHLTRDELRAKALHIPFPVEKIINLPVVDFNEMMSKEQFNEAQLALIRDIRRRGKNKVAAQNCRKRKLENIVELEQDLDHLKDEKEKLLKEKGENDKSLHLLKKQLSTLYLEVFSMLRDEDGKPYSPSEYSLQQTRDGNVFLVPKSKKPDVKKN

[5] = test system: Acute myeloid leukemic cell; test: Induction of ferroptosis in human Acute myeloid leukemic cells assessed as downregulation of GPX4 level by Western blot analysis; assay type: functional, cell-based
OCI-AML2 [6] = test: Induction of ferroptosis in human OCI-AML2 cells assessed as increase in lipid peroxidation accumulation at 100 uM incubated for 48 hrs by C11-BODIPY 581/591 staining based flow cytometry analysis; assay type: functional, cell-based
[7] = test system: Acute myeloid leukemic cell; test: Induction of ferroptosis in human Acute myeloid leukemic cells assessed as upregulation of FTL mRNA level by RT-qPCR analysis; assay type: functional, cell-based
U-937 [8] = test: Induction of ferroptosis in human U-937 cells assessed as increase in ROS generation at 5 uM incubated for 48 hrs in presence of ferrostatin-1 by DCFH-DA staining based flow cytometry analysis; assay type: functional, cell-based
U-937 [9] = test: Induction of ferroptosis in human U-937 cells assessed as increase in ferrous ion accumulation incubated for 48 hrs by RhoNox-1 staining based flow cytometry analysis; assay type: functional, cell-based; settings: dose 2.5-10 µM
U-937 [10] = test: Upregulation of p62 mRNA level in human U-937 cells by qRT-PCR analysis; assay type: functional, cell-based
[11] = Half life in ICR(CD-1) mouse at 5 mg/kg, iv treated up to 24 hrs by LC-MS/MS analysis; assay type: ADME, organism-based; settings: in vivo
[12] = test system: Acute myeloid leukemic cell; test: Induction of ferroptosis in human Acute myeloid leukemic cells assessed as […] of ACSL4 mRNA level by RT-qPCR analysis; assay type: functional, cell-based
U-937 [13] = test: Effect on MOAP1 gene expression in human U-937 cells at 10 uM incubated for 48 hrs by RT-qPCR; assay type: functional, cell-based
MV4-11 = test: Antiproliferative activity against human MV4-11 cells assessed as cell growth inhibition incubated for 2 days by CCK-8 assay; settings: MV4-11, 48 h
U-937 [14] = test: Cytotoxicity against human U-937 cells assessed as cell growth inhibition at 5 uM incubated for 24 to 48 hrs by cell counting assay; assay type: functional, cell-based; settings: time 24-48 hrs
[15] = test system: Acute myeloid leukemic cell; test: Induction of ferroptosis in human Acute myeloid leukemic cells assessed as upregulation of HMOX1 mRNA level by RT-qPCR analysis; assay type: functional, cell-based
U-937 [16] = test: Effect on CDK6 gene expression in human U-937 cells at 10 uM incubated for 48 hrs by RT-qPCR; assay type: functional, cell-based
[17] = Half life in ICR(CD-1) mouse at 50 mg/kg, ip treated up to 24 hrs by LC-MS/MS analysis; assay type: ADME, organism-based; settings: in vivo
U-937 [18] = test: Induction of cell apoptosis in human U-937 cells incubated for 48 hrs by Annexin V/DAPI staining based flow cytometry analysis; assay type: functional; settings: dose 2.5-10 µM
OCI-AML2 [19] = test: Induction of cell differentiation in human OCI-AML2 cells assessed as increase in CD11b expression at 5 uM incubated for 48 hrs by flow cytometry analysis; assay type: functional, cell-based
[20] = Induction of cell apoptosis in human OCI-AML-3 cells at 5 uM incubated for 48 hrs by Annexin V/DAPI staining based flow cytometry analysis relative to control; assay type: functional
U-937 [21] = test: Effect on TP53 gene expression in human U-937 cells at 10 uM incubated for 48 hrs by RT-qPCR; assay type: functional, cell-based
[22] = Toxicity in female C57BL/6 mouse assessed as drug tolerance at 50 mg/kg, ip administered once daily in presence of cytarabine; assay type: organism-based; settings: in vivo
OCI-AML2 [23] = test: Induction of cell differentiation in human OCI-AML2 cells assessed as increase in CD14 expression at 5 uM incubated for 48 hrs by flow cytometry analysis; assay type: functional, cell-based
OCI-AML-3 = test: Antiproliferative activity against human OCI-AML-3 cells assessed as cell growth inhibition incubated for 2 days by CCK-8 assay; settings: OCI-AML-3, 48 h
OCI-AML2 [24] = test: Induction of ferroptosis in human OCI-AML2 cells assessed as increase in ferrous ion accumulation at 100 uM incubated for 48 hrs by RhoNox-1 staining based flow cytometry analysis; assay type: functional, cell-based
U-937 [25] = test: Effect on CCND2 gene expression in human U-937 cells at 10 uM incubated for 48 hrs by RT-qPCR; assay type: functional, cell-based
MLL-AF9 [26] = test: Antitumor activity against mouse MLL-AF9 cells allografted in female C57BL/6 mouse model assessed as reduction in splenomegaly at 50 mg/kg, ip administered once daily for 23 days in presence of cytarabine; assay type: functional, organism-based; settings: time 23.0 day
[27] = Tmax in ICR(CD-1) mouse at 50 mg/kg, ip treated up to 24 hrs by LC-MS/MS analysis; assay type: ADME, organism-based; settings: in vivo
[28] = Induction of cell apoptosis in human THP-1 cells at 5 uM incubated for 48 hrs by Annexin V/DAPI staining based flow cytometry analysis relative to control; assay type: functional
U-937 [29] = test: Induction of ferroptosis in human U-937 cells assessed as increase in lipid peroxidation accumulation at 5 uM incubated for 48 hrs in presence of ferrostatin-1 by C11-BODIPY 581/591 staining based flow cytometry analysis; assay type: functional, cell-based
U-937 [30] = test: Effect on MYC gene expression in human U-937 cells at 10 uM incubated for 48 hrs by RT-qPCR; assay type: functional, cell-based
[31] = Toxicity in female C57BL/6 mouse assessed as drug tolerance at 50 mg/kg, ip administered once daily; assay type: organism-based; settings: in vivo
[32] = test system: Acute myeloid leukemic cell; test: Induction of ferroptosis in human Acute myeloid leukemic cells assessed as upregulation of HMOX1 protein level at 2.5 to 10 uM by Western blot analysis; assay type: functional, cell-based; settings: dose 2.5-10 µM
[33] = test system: Acute myeloid leukemic cell; test: Induction of ferroptosis in human Acute myeloid leukemic cells assessed as upregulation of GPX4 mRNA level by RT-qPCR analysis; assay type: functional, cell-based
[34] = test system: Acute myeloid leukemic cell; test: Induction of ferroptosis in human Acute myeloid leukemic cells assessed as upregulation of TF protein level at 2.5 to 10 uM by Western blot analysis; assay type: functional, cell-based; settings: dose 2.5-10 µM
MLL-AF9 [35] = test: Antitumor activity against mouse MLL-AF9 cells allografted in female C57BL/6 mouse model assessed as reduction in hepatomegaly at 50 mg/kg, ip administered once daily for 23 days in presence of cytarabine; assay type: functional, organism-based; settings: time 23.0 day
MLL-AF9 [36] = test: Synergistic antitumor activity against mouse MLL-AF9 at 1 to 4 uM in presence of cytarabine by CCK-8 assay; assay type: functional, cell-based; settings: dose 1-4 µM
U-937 [37] = test: Induction of ferroptosis in human U-937 cells assessed as increase in lipid peroxidation level incubated for 48 hrs by C11-BODIPY 581/591 staining based flow cytometry analysis; assay type: functional, cell-based; settings: dose 2.5-10 µM

Which results are given for `O=C(NO)c1cccc2[nH]c(C#Cc3cccc(C(F)(F)F)c3)cc12`?
AUC(0-inf) [1]: 625 ng·h/mL; Activity [2]: Non-toxic; MRT inf [3]: 1.27 h; Activity [4]: inactive; Activity [5]: Active; Activity (OCI-AML2 [6]): Active; Activity [7]: Active; Activity (U-937 [8]): inactive; Activity (U-937 [9]): Dose-dependent-effect; Activity (U-937 [10]): Active; half-life [11]: 0.82 h; Activity [12]: Active; Activity (U-937 [13]): Active; IC50 (MV4-11): ≤ 10 µM; Activity (U-937 [14]): Active; Activity [15]: Active; Activity (U-937 [16]): Active; half-life [17]: 8.95 h; Activity (U-937 [18]): Dose-dependent-effect; Activity (OCI-AML2 [19]): Active; Activity [20]: ~20%; Activity (U-937 [21]): Active; Activity [22]: Non-toxic; Activity (OCI-AML2 [23]): Active; IC50 (OCI-AML-3): ≤ 10 µM; Activity (OCI-AML2 [24]): Active; Activity (U-937 [25]): Active; Activity (MLL-AF9 [26]): Active; Tmax [27]: 4.8 min; Activity [28]: ~20%; Activity (U-937 [29]): inactive; Activity (U-937 [30]): Active; Activity [31]: Non-toxic; Activity [32]: Active; Activity [33]: Active; Activity [34]: Active; Activity (MLL-AF9 [35]): Active; Activity (MLL-AF9 [36]): Active; Activity (U-937 [37]): Dose-dependent-effect
